Reference: paper PMC11791039, “A split intein and split luciferase-coupled system for detecting protein-protein interactions” (Molecular Systems Biology, 2024)
Residues, ends and D or L forms follow the SMILES beside them. *: point of attachment. Cbz = O=C(OCc1ccccc1)*

Molecular target: T1, BRD4/CRBN interaction (Homo sapiens, UniProt O60885+Q96SW2)
T1 construct: β10-IN (tNLuc β10 peptide + GP41-1 split intein N fragment) (N); V5; IC-β9 (GP41-1 split intein C fragment + tNLuc β9 peptide) (N); FLAG; expressed in transfected cells
Experiment: SIMPL2 assay CRBN/BRD4 (PROTAC)
Format: cell-based
Details: MG132 1 μM, ARV-825 3 h

T1 sequence (Q96SW2 whole entry, the tested form may be a part): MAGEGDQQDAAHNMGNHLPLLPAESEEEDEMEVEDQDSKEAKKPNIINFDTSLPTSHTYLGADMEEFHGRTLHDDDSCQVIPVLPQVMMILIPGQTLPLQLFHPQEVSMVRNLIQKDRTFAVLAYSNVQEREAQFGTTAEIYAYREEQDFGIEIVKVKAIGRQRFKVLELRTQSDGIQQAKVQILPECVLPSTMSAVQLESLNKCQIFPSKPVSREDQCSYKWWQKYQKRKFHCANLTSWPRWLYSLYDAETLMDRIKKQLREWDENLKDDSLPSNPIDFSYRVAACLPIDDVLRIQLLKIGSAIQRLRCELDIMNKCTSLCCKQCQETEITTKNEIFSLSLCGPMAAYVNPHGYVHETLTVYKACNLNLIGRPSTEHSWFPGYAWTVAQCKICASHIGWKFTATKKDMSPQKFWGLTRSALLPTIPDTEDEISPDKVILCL
T1 sequence (Q16531 whole entry, further chain, the tested form may be a part): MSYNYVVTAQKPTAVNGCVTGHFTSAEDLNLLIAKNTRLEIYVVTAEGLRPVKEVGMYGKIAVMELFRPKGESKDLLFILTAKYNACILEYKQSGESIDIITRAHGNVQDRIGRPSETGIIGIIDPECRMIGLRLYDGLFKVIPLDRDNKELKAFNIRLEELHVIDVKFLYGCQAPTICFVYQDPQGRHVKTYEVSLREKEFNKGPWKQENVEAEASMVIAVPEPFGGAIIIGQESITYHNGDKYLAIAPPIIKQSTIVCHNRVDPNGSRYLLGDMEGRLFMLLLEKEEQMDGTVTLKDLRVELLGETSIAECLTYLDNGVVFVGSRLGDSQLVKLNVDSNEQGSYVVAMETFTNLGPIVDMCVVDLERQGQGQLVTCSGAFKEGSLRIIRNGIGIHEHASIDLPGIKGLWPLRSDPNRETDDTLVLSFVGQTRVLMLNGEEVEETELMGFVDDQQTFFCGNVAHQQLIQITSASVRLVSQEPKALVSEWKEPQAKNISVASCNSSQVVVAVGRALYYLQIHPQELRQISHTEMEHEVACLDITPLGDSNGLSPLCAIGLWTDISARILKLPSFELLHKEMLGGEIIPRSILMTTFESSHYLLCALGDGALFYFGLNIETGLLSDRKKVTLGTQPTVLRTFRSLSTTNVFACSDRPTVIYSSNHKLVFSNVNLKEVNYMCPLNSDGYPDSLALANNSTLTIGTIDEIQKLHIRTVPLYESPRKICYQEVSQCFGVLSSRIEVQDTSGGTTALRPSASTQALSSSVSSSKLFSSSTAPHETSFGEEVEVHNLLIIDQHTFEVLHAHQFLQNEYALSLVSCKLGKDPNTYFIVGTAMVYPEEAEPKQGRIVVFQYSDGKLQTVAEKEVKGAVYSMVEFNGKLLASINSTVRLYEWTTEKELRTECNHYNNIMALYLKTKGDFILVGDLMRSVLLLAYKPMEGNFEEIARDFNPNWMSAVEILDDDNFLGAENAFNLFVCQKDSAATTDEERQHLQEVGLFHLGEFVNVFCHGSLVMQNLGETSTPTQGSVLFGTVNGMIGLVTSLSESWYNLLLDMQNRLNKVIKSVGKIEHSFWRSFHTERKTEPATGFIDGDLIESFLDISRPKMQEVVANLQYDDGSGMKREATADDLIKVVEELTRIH

## CC(C)C[C@@H](C=O)NC(=O)[C@H](CC(C)C)NC(=O)[C@H](CC(C)C)NC(=O)OCc1ccccc1 [MG132] (Cbz-Leu-Leu-Leu-aldehyde)
  effect of MG132 co-treatment on ARV-825 SIMPL2 signals: profoundly enhanced
